Measured values as given in patent publication US5025033A, “Alkylene diamines” (Takeda Chemical Industries, Ltd., priority 1988, dated 1991).
Structures can show the parent of a compound that is named as a salt.

target: T1, Acetylcholinesterase (Rattus norvegicus, UniProt P37136); test: Acetylcholinesterase inhibiting activity using (acetyl-[3H])-acetylcholine, S1 fraction of rat cerebral cortex homogenate; type: biochemical, male Wistar rat; settings: rat cerebral cortex homogenate S1 fraction; 30 minutes of incubation; read-out: Acetylcholinesterase inhibiting activity IC50
T1 construct: the S1 fraction of a male Wistar rat cerebral cortex homogenate was used as a cholinesterase source; from tissue; host or cells: male Wistar rat cerebral cortex homogenate, S1 fraction
T1 sequence (P37136 32-614): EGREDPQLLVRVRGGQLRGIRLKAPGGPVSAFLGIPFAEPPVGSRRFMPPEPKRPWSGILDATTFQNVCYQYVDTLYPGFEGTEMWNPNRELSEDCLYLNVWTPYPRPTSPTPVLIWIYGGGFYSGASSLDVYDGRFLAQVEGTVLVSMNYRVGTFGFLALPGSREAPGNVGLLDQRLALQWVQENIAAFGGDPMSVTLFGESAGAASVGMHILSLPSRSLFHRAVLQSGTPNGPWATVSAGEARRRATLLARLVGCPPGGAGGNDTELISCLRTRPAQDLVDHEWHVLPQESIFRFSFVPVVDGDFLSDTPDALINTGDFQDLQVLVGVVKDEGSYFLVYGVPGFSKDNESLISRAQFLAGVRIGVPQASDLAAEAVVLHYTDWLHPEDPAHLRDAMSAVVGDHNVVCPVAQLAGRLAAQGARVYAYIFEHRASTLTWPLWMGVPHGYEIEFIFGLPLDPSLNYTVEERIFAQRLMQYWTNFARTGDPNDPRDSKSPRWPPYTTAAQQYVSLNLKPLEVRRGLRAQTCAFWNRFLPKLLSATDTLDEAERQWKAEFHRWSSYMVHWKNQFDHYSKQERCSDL
Protocol: The compounds according to the invention were examined for cholinesterase inhibiting activity using (acetyl-[^3 H])-acetylcholine. Thus, the S1 fraction of a male Wistar rat cerebral cortex homogenate was used as a cholinesterase source, and (acetyl-[^3 H])-acetylcholine (as substrate) and each test compound according to the invention were added and, after 30 minutes of incubation, the reaction was terminated. A toluene type scintillator was added, and the mixture was shaken, whereby the reaction product [^3 H]-acetic acid was transferred to the toluene layer. The cholinesterase activity was determined by counting said [^3 H]-acetic acid with a liquid scintillation counter.
The cholinesterase inhibiting activity of each test compound was expressed in terms of 50% inhibitory concentration (IC50).

In order of falling IC50:
1. CC(=O)N(CCCCN(C)Cc1ccccc1)C(=O)/C=C/c1ccc([N+](=O)[O-])cc1 [Compound 15, (E)-N-Acetyl-N-[4-(N-methyl-N-benzyl)aminobutyl]-3-(4-nitrophenyl)-2-propenamide hydrochloride]  19000 nM
2. CCN(CCCCCNC(=O)/C=C/c1cccc(N)c1)Cc1ccccc1 [Compound 20-1]  19000 nM
3. CCN(CCCCCNC(=O)/C=C/c1ccc(N)cc1)Cc1ccccc1 [Compound 20-3]  10000 nM
4. CCN(CCCCN(C(C)=O)C(=O)/C=C/c1ccc([N+](=O)[O-])cc1)Cc1ccccc1 [Compound 16-1]  7300 nM
5. CCN(CCCCCN(C(C)=O)C(=O)/C=C/c1cccc(OC)c1)Cc1ccccc1 [Compound 16-7]  5800 nM
6. CCN(CCCCCNC(=O)/C=C/c1ccc(NC(C)=O)cc1)Cc1ccccc1 [Compound 21-2]  5700 nM
7. CCC(=O)N(CCCCCN(CC)Cc1ccccc1)C(=O)/C=C/c1ccc([N+](=O)[O-])cc1 [Compound 19-1]  4300 nM
8. CCN(CCCCCCN(C(C)=O)C(=O)/C=C/c1ccc([N+](=O)[O-])cc1)Cc1ccccc1 [Compound 16-3]  3000 nM
9. CCN(CCCCCN(C(C)=O)C(=O)/C=C/c1cccc(N)c1)Cc1ccccc1 [Compound 20-2]  2400 nM
10. CCN(CCCCCN(C(C)=O)C(=O)/C=C/c1ccc(Cl)cc1)Cc1ccccc1 [Compound 16-5]  2200 nM
11. CCN(CCCCCN(C(C)=O)C(=O)/C=C/c1cccc(NC(C)=O)c1)Cc1ccccc1 [Compound 21-1]  1800 nM
12. CCOC(=O)c1ccc2c(c1)C(=O)N(CCCCCN(CC)Cc1ccccc1)C2=O [Compound 17, Ethyl 2-[5-(N-benzyl-N-ethyl)aminopentyl]-1,3(2H)-dioxo-1H-isoindole-5-carboxylate.hydrochloride]  680 nM
13. CCN(CCCCCN(C(C)=O)C(=O)/C=C/c1ccc([N+](=O)[O-])cc1)Cc1ccccc1 [Compound 16-2]  560 nM
14. CCN(CCCCCN(C(C)=O)C(=O)/C=C/c1cccc([N+](=O)[O-])c1)Cc1ccccc1 [Compound 16-4]  530 nM
15. CCN(CCCCCN(C(C)=O)C(=O)/C=C/c1ccc(C#N)cc1)Cc1ccccc1 [Compound 16-6]  460 nM
16. CCN(CCCCCNC(=O)/C=C/c1ccc(OC)c(OC)c1)Cc1ccccc1OC [Compound 18-5]  430 nM
17. CCN(CCCCCN(C(C)=O)C(=O)/C=C/c1ccc(Cl)c([N+](=O)[O-])c1)Cc1ccccc1 [Compound 16-11]  410 nM
18. CCN(CCCCCNC(=O)/C=C/c1ccc(C#N)cc1)Cc1ccccc1OC [Compound 18-4]  370 nM
19. CCN(CCCCCN(C(C)=O)C(=O)/C=C/c1ccc([N+](=O)[O-])c(O)c1)Cc1ccccc1 [Compound 16-9]  350 nM
20. CCN(CCCCCNC(=O)/C=C/c1ccc([N+](=O)[O-])cc1)Cc1ccccc1OC [Compound 18-2]  290 nM
21. CCN(CCCCCN(C(C)=O)C(=O)/C=C/c1ccc([N+](=O)[O-])c(OC(C)=O)c1)Cc1ccccc1 [Compound 16-10]  280 nM
22. CCN(CCCCCNC(=O)/C=C/c1ccc(S(C)(=O)=O)cc1)Cc1ccccc1OC [Compound 18-3]  230 nM
23. CCN(CCCCCNC(=O)/C=C/c1ccc(Cl)c([N+](=O)[O-])c1)Cc1ccccc1OC [Compound 18-1]  220 nM
24. CCN(CCCCCN(C(C)=O)C(=O)/C=C/c1ccc(S(C)(=O)=O)cc1)Cc1ccccc1 [Compound 16-8]  170 nM
